Measured values: patent US20250099420A1, “SMALL MOLECULE MODULATORS OF GPR139 COMPLEX” (University of Florida Research Foundation, Incorporated, priority 2022, published 2025)
Where two headings read alike, the source gives them in different places.

How the values were obtained:
[1] = molecular target: T1, GPR139 (Homo sapiens, UniProt Q6DWJ6); experiment: GPR139 Agonist titration / agonist counterscreen assay (calcium detection, HEK-GPR139 cells); type: cell-based; design: expressed in transfected cells; host or cells: HEK Aequorin cells, Maxcyte transient transfection; conditions: GPR139 Agonist Activity; for Averaged Max % Response (±St. Dev.): activity relative to known control; for EC50: read-out: EC50
T1 sequence (Q6DWJ6 1-353): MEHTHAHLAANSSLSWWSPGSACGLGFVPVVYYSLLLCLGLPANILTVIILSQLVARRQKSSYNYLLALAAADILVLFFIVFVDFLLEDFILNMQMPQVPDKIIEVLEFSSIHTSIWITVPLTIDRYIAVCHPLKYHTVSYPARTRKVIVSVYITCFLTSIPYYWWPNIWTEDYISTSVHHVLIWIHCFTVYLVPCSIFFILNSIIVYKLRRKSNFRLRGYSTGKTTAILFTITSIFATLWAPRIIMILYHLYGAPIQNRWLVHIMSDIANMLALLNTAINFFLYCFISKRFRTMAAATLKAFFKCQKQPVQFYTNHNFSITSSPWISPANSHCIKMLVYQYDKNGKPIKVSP
Procedure: GPR activity was assessed using a calcium detection assay. […] Negative control samples were treated with DMSO. […] Intracellular calcium was measured using Calcium 5.

[2] = tested on: parental HEK cells; experiment: HEK parental Agonist Counterscreen Assay (non-transfected cells); type: cell-based; conditions: for Averaged Max % Response (±St. Dev.): activity relative to known control
From the text: The high control for the agonist counterscreen was Forskolin not acetylcholine.

[3] = values printed in E-notation without unit
[4] = Homo sapiens, HEK293, HEK Agonist Activity section of Table 4 (parental HEK counterscreen)
[5] = HEK Agonist Activity section of Table 4 (parental HEK counterscreen)

In the case of `O=C(CN1C(=O)NC2(CCc3ccccc3C2)C1=O)N1CCc2ccccc2C1` (stereo not drawn) [SR-01000062726], the “Averaged Max % Response (±St. Dev.)” value [1] is reported as 103.63 ± 9.70%, the “Lipophilic Efficiency (logD)” value ([1]; based on logD) is reported as 4.25 and the “Lipophilic Efficiency (logP)” value ([1]; based on logP) is reported as 4.25. The “Hill Slope” value ([1]; fitted dose-response curve) was 0.89, the “Efficiency Ligand” value ([1]; ligand efficiency) was 0.32 and the EC50 [1, 3] was 0.205 µM. The “Lipophilic Efficiency (logD)” value ([2]; HEK Agonist Activity section) was 2.40, the “Lipophilic Efficiency (logP)” value ([2]; HEK Agonist Activity section) was 2.40 and the “Averaged Max % Response (±St. Dev.)” value ([2]; HEK Agonist Activity section) was −12.60 ± 9.55%. For the same molecule, the EC50 [2, 4] was > 14.5 µM.
With `COc1ccc(C2(C)NC(=O)N(CC(=O)Nc3cc(C)ccc3C)C2=O)cc1` (stereo not drawn) [SR-01000918716] the “Averaged Max % Response (±St. Dev.)” value [1] was 111.04 ± 7.77%, the “Lipophilic Efficiency (logD)” value ([1]; based on logD) was 5.74 and the “Lipophilic Efficiency (logP)” value ([1]; based on logP) was 5.74. The “Efficiency Ligand” value ([1]; ligand efficiency) was 0.43, the “Hill Slope” value ([2]; HEK Agonist Activity) was 0.85 and the “Lipophilic Efficiency (logD)” value ([2]; HEK Agonist Activity) was 2.34. The “Lipophilic Efficiency (logP)” value ([2]; HEK Agonist Activity) was 2.34, the “Averaged Max % Response (±St. Dev.)” value ([2]; HEK Agonist Activity) was 92.04 ± 16.23% and the EC50 ([2]; HEK Agonist Activity, parental non-transfected HEK cells) was 5.5 µM.
In the case of `CCOc1ccc(C(=O)NCCn2ccc3ccccc32)cc1OCC` [SR-01000907288], the “Averaged Max % Response (±St. Dev.)” value [1] is reported as 110.51 ± 12.41%, the “Lipophilic Efficiency (logD)” value ([1]; based on logD) is reported as 5.58 and the “Lipophilic Efficiency (logP)” value ([1]; based on logP) is reported as 5.58. For the same molecule, the “Efficiency Ligand” value ([1]; ligand efficiency) was 0.49, the “Lipophilic Efficiency (logD)” value ([2]; HEK Agonist Activity) was 1.28 and the “Lipophilic Efficiency (logP)” value ([2]; HEK Agonist Activity) was 1.28. The “Averaged Max % Response (±St. Dev.)” value ([2]; HEK Agonist Activity) was 14.88 ± 7.51% and the EC50 ([2]; Homo sapiens, HEK293, HEK Agonist Activity, parental non-transfected HEK cells) was > 14.1 µM.
In the case of `COc1cc(-c2noc(CCC(=O)Nc3cccc(C)c3C)n2)cc(OC)c1OC` [SR-01000139458], the “Efficiency Ligand” value [1] is reported as 0.29, the “Hill Slope” value [1] is reported as 1.12 and the “Lipophilic Efficiency (logD)” value [1] is reported as 2.20. For the same molecule, the “Lipophilic Efficiency (logP)” value [1] was 2.20, the EC50 ([1]; HEK-GPR139 cells) was 0.556 µM and the “Averaged Max % Response (±St. Dev.)” value [1] was 116.90 ± 31.97%. For the same molecule, the “Lipophilic Efficiency (logD)” value ([2]; HEK Agonist Activity section) was 0.80, the “Lipophilic Efficiency (logP)” value ([2]; HEK Agonist Activity section) was 0.80 and the EC50 [2, 5] was > 14.1 µM. For the same molecule, the “Averaged Max % Response (±St. Dev.)” value ([2]; HEK Agonist Activity section) was 16.10 ± 9.95%.
`Cc1cc(Br)ccc1OCC(=O)NNC(=O)c1ccccc1C` [SR-01000318521] was tested, and the “Efficiency Ligand” value [1] was 0.36, the “Hill Slope” value [1] was 0.97 and the “Lipophilic Efficiency (logD)” value [1] was 2.40. For the same molecule, the “Lipophilic Efficiency (logP)” value [1] was 2.39, the EC50 ([1]; HEK-GPR139 cells) was 1.2 µM and the “Averaged Max % Response (±St. Dev.)” value [1] was 72.38 ± 5.96%. The “Lipophilic Efficiency (logD)” value ([2]; HEK Agonist Activity section) was 1.31, the “Lipophilic Efficiency (logP)” value ([2]; HEK Agonist Activity section) was 1.30 and the “Averaged Max % Response (±St. Dev.)” value ([2]; HEK Agonist Activity section) was 6.11 ± 9.12%. The EC50 [2, 4] was > 14.1 µM.
`Cc1ccccc1SCC(=O)NNC(=O)C1CCCCC1` [SR-01000070173] was tested, and the “Efficiency Ligand” value [1] was 0.42, the “Hill Slope” value [1] was 0.62 and the “Lipophilic Efficiency (logD)” value [1] was 3.30. For the same molecule, the “Lipophilic Efficiency (logP)” value [1] was 3.30, the EC50 ([1]; HEK-GPR139 cells) was 0.507 µM and the “Averaged Max % Response (±St. Dev.)” value [1] was 99.23 ± 7.18%. The “Lipophilic Efficiency (logD)” value ([2]; HEK Agonist Activity section) was 1.83, the “Lipophilic Efficiency (logP)” value ([2]; HEK Agonist Activity section) was 1.83 and the “Averaged Max % Response (±St. Dev.)” value ([2]; HEK Agonist Activity section) was 7.45 ± 6.67%. For the same molecule, the EC50 [2, 4] was > 14.7 µM.
For `Cc1ccc(SCC(=O)Nc2nnc(-c3ccc(Cl)cc3)o2)cc1` [SR-01000913573], the “Averaged Max % Response (±St. Dev.)” value [1] was 186.79 ± 37.86%, the “Lipophilic Efficiency (logD)” value ([1]; based on logD) was 2.75 and the “Lipophilic Efficiency (logP)” value ([1]; based on logP) was 2.75. For the same molecule, the “Efficiency Ligand” value ([1]; ligand efficiency) was 0.39, the EC50 [1, 3] was > 0.174 µM and the “Lipophilic Efficiency (logD)” value ([2]; HEK Agonist Activity section) was 0.84. For the same molecule, the “Lipophilic Efficiency (logP)” value ([2]; HEK Agonist Activity section) was 0.84, the EC50 [2, 5] was > 14.1 µM and the “Averaged Max % Response (±St. Dev.)” value ([2]; HEK Agonist Activity section) was 8.58 ± 4.44%.
